In PubChem BioAssay AID2060329 (Molecular Pharmacology Branch, DTP, NCI, 2025):
Where “and” joins values, the source holds several entries; their conditions need not be identical. Equal entries are not always repeated.

Tested on: MCF7 multi-cell spheroids with HUVEC/MSC, viability
Experiment: Anticancer human tumor MCF7 cell line growth inhibition [IpAb];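 also: spheroids exposed to agents for seven days before readout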
Settings: for viability, T/C: stronger effect = lower value
From the text: Combinatorial screen of targeted agents with ipatasertib and abemaciclib in multi-cell type tumor spheroids
A high-throughput screen of multi-cell type tumor spheroids was designed to identify active combinations of targeted small molecules and ipatasertib or abemaciclib. Complex spheroids include a stromal component modeled by human endothelial cells (HUVEC) and fibroblasts modeled by human mesenchymal stem cells (MSCs). The concentration ranges selected for each drug and investigational agent were based upon clinically achievable concentrations if the clinical Cmax of the agent was known.
Compounds. The drugs and investigational agents: ipatasertib (NSC767898), abemaciclib(NSC768073), selumetinib (NSC741078), trametinib (758246), adavosertib (NSC754352), everolimus (NSC733504), sapanisertib (NSC764658), vemurafenib (NSC761431), venetoclax (NSC766270), copanlisib (NSC809693), apelisib (NSC765974), palbociblib (NSC758247), vemurafenib (NSC761431), dabrafenib (NSC764134), ravoxertinib (NSC781343), BMS-387032 (NSC767048), sotorasib (NSC818433), talazoparib (NSC767125) and afursertib (NSC778305), were obtained from the National Cancer Institute (NCI) Developmental Therapeutics Program Chemical Repository. The FDA-approved anticancer drug set is available from the NCI Developmental Therapeutics Program. […] The stock solutions were prepared in dimethyl sulfoxide (DMSO, Sigma-Aldrich, St. Louis, MO, cat. D2650) at 800-fold the tested concentration and stored at -70 degrees C prior to their use. All drugs and investigational agents were tested over a range starting from a high concentration at or near the clinical Cmax and decreasing in half-log increments. If the clinical Cmax for an agent had not been determined, the highest concentration tested was 10 microM.
NCI60 Cell Culture. NCI60 cell lines were obtained from the NCI Developmental Therapeutics Program Tumor Repository. For each lot of cells, the Repository performed Applied Biosystems AmpFLSTR Identifiler testing with PCR amplification to confirm consistency with the published Identifier STR profile for each cell line. Cells were kept in continuous culture for no more than 20 passages. The optimal seeding densities for each of the cell lines at each time point assessed were determined prior to performing the concentration response studies. Briefly, the NCI60 human tumor lines were grown as monolayers in RPMI 1640 medium supplemented with 10% FBS and 2 mmol/L L-glutamine.
An additional 9 lines were from the NCI60 cell line panel including MDA-MB-231 breast carcinoma, MDA-MB-468 breast carcinoma, MCF7 breast carcinoma, Hs578T breast carcinoma, MALME-3M melanoma, SK-MEL-2 melanoma, SK-OV-3 ovarian carcinoma, DU-145 prostate carcinoma, PC-3 prostate carcinoma, all cell lines along with major genetic alterations are listed on Table 2. Pooled donor human umbilical vein endothelial cells (HUVEC, Lonza, cat. CC-2519) and human mesenchymal stem cells (hMSC, Lonza, cat. PT-2501) were purchased from Lonza (Walkersville, MD).
PDMR cell lines were grown in complete medium (DC medium): Dulbecco's modified Eagle's medium (DMEM)/F12 supplemented with 5% fetal bovine serum (FBS), 2 mM L-glutamine, 100 U/mL penicillin and 100 µg/ml streptomycin, 0.4 µg/ml hydrocortisone, 10 ng/ml epidermal growth factor (EGF) recombinant human protein, 24 µg/mL adenine, and 0.1 mg/mL primocin. During culture from frozen stock vials, PDMR cells were cultured in the same medium containing 10 µM Y-27632 (see Table 3). The PDCs were cultured in complete DMEM/F12 media without 10 microM Y-27632 dihydrochloride for at least two passages prior to the screen. The pooled donor HUVEC and hMSC were cultured in endothelial cell growth medium 2 (PromoCell, Heidelberg, Germany, cat. C-22011) and mesenchymal stem cell growth medium 2 (PromoCell, cat. C-28009), respectively. For all experiments, HUVEC and hMSC were used at passages </=5.
[…]

[1] = curve of first compound, second compound 0.1 µM
[2] = curve of first compound, second compound 0.316 µM
[3] = curve of first compound, second compound 1 µM
[4] = second compound 0.1 µM, first compound 0.0316 µM
[5] = second compound 0.1 µM, first compound 0.1 µM
[6] = second compound 0.1 µM, first compound 0.316 µM
[7] = second compound 0.1 µM, first compound 1 µM
[8] = second compound 0.1 µM, first compound 3.16 µM
[9] = second compound 0.1 µM, first compound 10 µM
[10] = second compound 0.316 µM, first compound 0.0316 µM
[11] = second compound 0.316 µM, first compound 0.1 µM
[12] = second compound 0.316 µM, first compound 0.316 µM
[13] = second compound 0.316 µM, first compound 1 µM
[14] = second compound 0.316 µM, first compound 3.16 µM
[15] = second compound 0.316 µM, first compound 10 µM
[16] = second compound 1 µM, first compound 0.0316 µM
[17] = second compound 1 µM, first compound 0.1 µM
[18] = second compound 1 µM, first compound 0.316 µM
[19] = second compound 1 µM, first compound 1 µM
[20] = second compound 1 µM, first compound 3.16 µM
[21] = second compound 1 µM, first compound 10 µM
[22] = curve of first compound, second compound 3.16 µM
[23] = curve of first compound, second compound 10 µM
[24] = second compound 3.16 µM, first compound 0.0316 µM
[25] = second compound 3.16 µM, first compound 0.1 µM
[26] = second compound 3.16 µM, first compound 0.316 µM
[27] = second compound 3.16 µM, first compound 1 µM
[28] = second compound 3.16 µM, first compound 3.16 µM
[29] = second compound 3.16 µM, first compound 10 µM
[30] = second compound 10 µM, first compound 0.0316 µM
[31] = second compound 10 µM, first compound 0.1 µM
[32] = second compound 10 µM, first compound 0.316 µM
[33] = second compound 10 µM, first compound 1 µM
[34] = second compound 10 µM, first compound 3.16 µM
[35] = second compound 10 µM, first compound 10 µM

Structure (SMILES)	IC50 [1]	IC50 [2]	IC50 [3]	viability, T/C [4]	viability, T/C [5]	viability, T/C [6]	viability, T/C [7]	viability, T/C [8]	viability, T/C [9]	viability, T/C [10]	viability, T/C [11]	viability, T/C [12]	viability, T/C [13]	viability, T/C [14]	viability, T/C [15]	viability, T/C [16]	viability, T/C [17]	viability, T/C [18]	viability, T/C [19]	viability, T/C [20]	other results
CC(C)(C)c1cnc(CSc2cnc(NC(=O)C3CCNCC3)s2)o1	–	–	–	–	–	–	–	–	–	–	–	–	–	–	–	–	–	–	–	–	viability, T/C (compound 0.00949 µM): 105% and 109%; viability, T/C (compound 0.03 µM): 100% and 104%; viability, T/C (compound 0.0949 µM): 51.5% and 37.9%; viability, T/C (compound 0.3 µM): 22% and 24.1%; viability, T/C (compound 0.949 µM): 27.4% and 28.2%; viability, T/C (compound 3 µM): 35.6% and 32.6%; IC50 (curve of compound): 100 nM and 76.7 nM
CC1(C)CCC(CN2CCN(c3ccc(C(=O)NS(=O)(=O)c4ccc(NCC5CCOCC5)c([N+](=O)[O-])c4)c(Oc4cnc5[nH]ccc5c4)c3)CC2)=C(c2ccc(Cl)cc2)C1 + CCN1CCN(Cc2ccc(Nc3ncc(F)c(-c4cc(F)c5nc(C)n(C(C)C)c5c4)n3)nc2)CC1	6630 nM	6290 nM	5390 nM	107%	118%	102%	106%	104%	20.1%	99.5%	117%	116%	104%	98.6%	17%	105%	107%	101%	92.7%	87.7%	IC50 (curve of first compound, second compound 0.01 µM): 7020 nM; IC50 (curve of first compound, second compound 0.0316 µM): 7010 nM; viability, T/C (second compound 0.01 µM, first compound 0.0316 µM): 107%; viability, T/C (second compound 0.01 µM, first compound 0.1 µM): 93.2%; viability, T/C (second compound 0.01 µM, first compound 0.316 µM): 109%; viability, T/C (second compound 0.01 µM, first compound 1 µM): 96.8%; viability, T/C (second compound 0.01 µM, first compound 3.16 µM): 111%; viability, T/C (second compound 0.01 µM, first compound 10 µM): 26.4%; viability, T/C (second compound 0.0316 µM, first compound 0.0316 µM): 97.8%; viability, T/C (second compound 0.0316 µM, first compound 0.1 µM): 94.8%; viability, T/C (second compound 0.0316 µM, first compound 0.316 µM): 94.9%; viability, T/C (second compound 0.0316 µM, first compound 1 µM): 91.5%; viability, T/C (second compound 0.0316 µM, first compound 3.16 µM): 104%; viability, T/C (second compound 0.0316 µM, first compound 10 µM): 29.2%; viability, T/C [21]: 9.36%
CC1(C)CCC(CN2CCN(c3ccc(C(=O)NS(=O)(=O)c4ccc(NCC5CCOCC5)c([N+](=O)[O-])c4)c(Oc4cnc5[nH]ccc5c4)c3)CC2)=C(c2ccc(Cl)cc2)C1 + CC(C)NCC(C(=O)N1CCN(c2ncnc3c2C(C)CC3O)CC1)c1ccc(Cl)cc1	6000 nM	4520 nM	2510 nM	85%	83.3%	87.6%	84.2%	84.9%	22.2%	72.4%	74.9%	69.5%	72.1%	67.3%	11.3%	69.4%	64.9%	70.1%	56.1%	49.5%	IC50 [22]: 33.7 nM; IC50 [23]: < 31.6 nM; viability, T/C [21]: 10.9%; viability, T/C [24]: 47.9%; viability, T/C [25]: 51.6%; viability, T/C [26]: 51.3%; viability, T/C [27]: 39.7%; viability, T/C [28]: 34.1%; viability, T/C [29]: 9.03%; viability, T/C [30]: 39.3%; viability, T/C [31]: 34.5%; viability, T/C [32]: 32.1%; viability, T/C [33]: 27.8%; viability, T/C [34]: 29.7%; viability, T/C [35]: 5.76%
Cc1nc(NC(=O)N2CCCC2C(N)=O)sc1-c1ccnc(C(C)(C)C(F)(F)F)c1 (configuration not stated) + CC(C)NCC(C(=O)N1CCN(c2ncnc3c2C(C)CC3O)CC1)c1ccc(Cl)cc1	1810 nM	398 nM	< 31.6 nM	68.9%	66.4%	56.9%	52.7%	49.6%	20.4%	62.4%	57%	50.3%	42.8%	37.8%	19.9%	45.8%	52.7%	36.2%	34.7%	34.4%	IC50 [22]: < 31.6 nM; IC50 [23]: < 31.6 nM; viability, T/C [21]: 9.85%; viability, T/C [24]: 36.9%; viability, T/C [25]: 38.1%; viability, T/C [26]: 35.4%; viability, T/C [27]: 29.5%; viability, T/C [28]: 27.1%; viability, T/C [29]: 7.55%; viability, T/C [30]: 28.6%; viability, T/C [31]: 25.9%; viability, T/C [32]: 26.1%; viability, T/C [33]: 21.5%; viability, T/C [34]: 28.4%; viability, T/C [35]: 1.68%
